Drawing on patent US9499550B2 (BRISTOL-MYERS SQUIBB COMPANY, priority 2012, dated 2016), this text covers EC50 for 12 molecules.

What is called EC50 is the concentration needed to bring the measured effect to its halfway point.

The test system of assay [1] is HCV genotype 1b (Con1) replicon in HUH-7 cells. As to the kind of experiment: HCV replicon luciferase reporter assay, genotype 1b. Type of assay: cell-based. The settings on record: Hepatitis C virus, Huh-7, 72 h, HCV genotype 1b replicon luciferase assay, 3 days incubation, range class, read-out: LE_1b (EC50, range). In outline:
(§1)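 Replicon inhibition for both genotypes was measured as Renilla luciferase signal (EnduRen, 7.5 μM final, 2 h) after 3-day, 37° C exposure of replicon-bearing HUH-7 cells in 4% FCS DMEM, 0.5% DMSO. The 1b construct carries S1179I; the 1a H77 construct carries P1496L and S2204I. Twenty-point, 3-fold dilutions were fitted four-parametrically for EC50, and CC50 was taken from multiplexed Cell Titer-Blue.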

Assay [2] relates to HCV genotype 1a (H77 strain) replicon in HUH-7 cells. Put plainly: HCV replicon luciferase reporter assay, genotype 1a. Type of assay: cell-based. The settings on record: Hepatitis C virus, Huh-7, 72 h, HCV genotype 1a replicon luciferase assay, 3 days incubation, range class, read-out: LE_1a (EC50, range). In outline: as §1

In the case of `CCCOc1cc2c(Cl)cccc2c(O[C@@H]2C[C@H]3C(=O)N[C@]4(C(=O)NS(=O)(=O)C5(C)CC5)C[C@H]4/C=C\CC[C@@H](C)C[C@@H](C)[C@H](NC(=O)OC4C[C@@H]5C[C@H]5C4)C(=O)N3C2)n1` [Compound 1088, (1S,5S)-bicyclo[3.1.0]hexan-3-yl((2R,6S,7R,9R,13aS,14aR,16aS,Z)-2-((5-chloro-3-propoxyisoquinolin-1-yl)oxy)-7,9-dimethyl-14a-(((1-methylcyclopropyl)sulfonyl)carbamoyl)-5,16-dioxo-1,2,3,5,6,7,8,9,10,11,13a,14,14a,15,16,16a-hexadecahydrocyclopropa[e]pyrrolo[1,2-a][1,4]diazacyclopentadecin-6-yl)carbamate], the half-maximal effective concentration (EC50) in assay [1] and in assay [2] was less than 5.46 nM throughout.
For `CC(C)Oc1cc2c(Cl)cccc2c(O[C@@H]2C[C@H]3C(=O)N[C@]4(C(=O)NS(=O)(=O)C5(C)CC5)C[C@H]4/C=C\CC[C@H](C)C[C@@H](C)[C@H](NC(=O)OC(C)(C)C)C(=O)N3C2)n1` [Compound 1089, tert-butyl ((2R,6S,7R,9S,13aS,14aR,16aS,Z)-2-((5-chloro-3-isopropoxyisoquinolin-1-yl)oxy)-7,9-dimethyl-14a-(((1-methylcyclopropyl)sulfonyl)carbamoyl)-5,16-dioxo-1,2,3,5,6,7,8,9,10,11,13a,14,14a,15,16,16a-hexadecahydrocyclopropa[e]pyrrolo[1,2-a][1,4]diazacyclopentadecin-6-yl)carbamate], the EC50 in assay [1] was less than 5.46 nM; in assay [2] it was 4.82 to 103 nM.
For `CC(C)Oc1cc2c(Cl)cccc2c(O[C@@H]2C[C@H]3C(=O)N[C@]4(C(=O)NS(=O)(=O)C5(C)CC5)C[C@H]4/C=C\CC[C@@H](C)C[C@@H](C)[C@H](NC(=O)OC(C)(C)C)C(=O)N3C2)n1` [Compound 1090, tert-butyl ((2R,6S,7R,9R,13aS,14aR,16aS,Z)-2-((5-chloro-3-isopropoxyisoquinolin-1-yl)oxy)-7,9-dimethyl-14a-(((1-methylcyclopropyl)sulfonyl)carbamoyl)-5,16-dioxo-1,2,3,5,6,7,8,9,10,11,13a,14,14a,15,16,16a-hexadecahydrocyclopropa[e]pyrrolo[1,2-a][1,4]diazacyclopentadecin-6-yl)carbamate], the EC50 in assay [1] and in assay [2] was less than 5.46 nM throughout.
In the case of `CC(C)Oc1cc2c(Cl)cccc2c(O[C@@H]2C[C@H]3C(=O)N[C@]4(C(=O)NS(=O)(=O)C5CC5)C[C@H]4/C=C\CC[C@H](C)C[C@@H](C)[C@H](NC(=O)OC(C)(C)C)C(=O)N3C2)n1` [Compound 1091, tert-butyl ((2R,6S,7R,9S,13aS,14aR,16aS,Z)-2-((5-chloro-3-isopropoxyisoquinolin-1-yl)oxy)-14a-((cyclopropylsulfonyl)carbamoyl)-7,9-dimethyl-5,16-dioxo-1,2,3,5,6,7,8,9,10,11,13a,14,14a,15,16,16a-hexadecahydrocyclopropa[e]pyrrolo[1,2-a][1,4]diazacyclopentadecin-6-yl)carbamate], the EC50 in assay [1] is less than 5.46 nM; in assay [2], 4.82 to 103 nM.
On the same counts, the results for `CC(C)Oc1cc2c(Cl)cccc2c(O[C@@H]2C[C@H]3C(=O)N[C@]4(C(=O)NS(=O)(=O)C5CC5)C[C@H]4/C=C\CC[C@@H](C)C[C@@H](C)[C@H](NC(=O)OC(C)(C)C)C(=O)N3C2)n1` [Compound 1092, tert-butyl ((2R,6S,7R,9R,13aS,14aR,16aS,Z)-2-((5-chloro-3-isopropoxyisoquinolin-1-yl)oxy)-14a-((cyclopropylsulfonyl)carbamoyl)-7,9-dimethyl-5,16-dioxo-1,2,3,5,6,7,8,9,10,11,13a,14,14a,15,16,16a-hexadecahydrocyclopropa[e]pyrrolo[1,2-a][1,4]diazacyclopentadecin-6-yl)carbamate] are less than 5.46 nM and less than 5.46 nM.
On the same counts, the results for `CC(C)Oc1cc2c(Cl)cccc2c(O[C@@H]2C[C@H]3C(=O)N[C@]4(C(=O)NS(=O)(=O)C5CC5)C[C@H]4/C=C\CC[C@H](C)C[C@@H](C)[C@H](NC(=O)OC(C)(C)C(F)(F)F)C(=O)N3C2)n1` [Compound 1093, 1,1,1-trifluoro-2-methylpropan-2-yl((2R,6S,7R,9S,13aS,14aR,16aS,Z)-2-((5-chloro-3-isopropoxyisoquinolin-1-yl)oxy)-14a-((cyclopropylsulfonyl)carbamoyl)-7,9-dimethyl-5,16-dioxo-1,2,3,5,6,7,8,9,10,11,13a,14,14a,15,16,16a-hexadecahydrocyclopropa[e]pyrrolo[1,2-a][1,4]diazacyclopentadecin-6-yl)carbamate] are less than 5.46 nM and 4.82 to 103 nM.
In the case of `CC(C)Oc1cc2c(Cl)cccc2c(O[C@@H]2C[C@H]3C(=O)N[C@]4(C(=O)NS(=O)(=O)C5CC5)C[C@H]4/C=C\CC[C@@H](C)C[C@@H](C)[C@H](NC(=O)OC(C)(C)C(F)(F)F)C(=O)N3C2)n1` [Compound 1094, 1,1,1-trifluoro-2-methylpropan-2-yl((2R,6S,7R,9R,13aS,14aR,16aS,Z)-2-((5-chloro-3-isopropoxyisoquinolin-1-yl)oxy)-14a-((cyclopropylsulfonyl)carbamoyl)-7,9-dimethyl-5,16-dioxo-1,2,3,5,6,7,8,9,10,11,13a,14,14a,15,16,16a-hexadecahydrocyclopropa[e]pyrrolo[1,2-a][1,4]diazacyclopentadecin-6-yl)carbamate], the 50% effective concentration (EC50) in assay [1] and in assay [2] was less than 5.46 nM in each case.
On to `C[C@H]1CC/C=C\[C@@H]2C[C@@]2(C(=O)NS(=O)(=O)C2CC2)NC(=O)[C@@H]2C[C@@H](Oc3nc(OCC(F)F)cc4c(Cl)cccc34)CN2C(=O)[C@@H](NC(=O)OC(C)(C)C(F)(F)F)[C@H](C)C1` [Compound 1095, 1,1,1-trifluoro-2-methylpropan-2-yl((2R,6S,7R,9S,13aS,14aR,16aS,Z)-2-((5-chloro-3-(2,2-difluoroethoxyl)isoquinolin-1-yl)oxy)-14a-((cyclopropylsulfonyl)carbamoyl)-7,9-dimethyl-5,16-dioxo-1,2,3,5,6,7,8,9,10,11,13a,14,14a,15,16,16a-hexadecahydrocyclopropa[e]pyrrolo[1,2-a][1,4]diazacyclopentadecin-6-yl)carbamate], for which the EC50 is less than 5.46 nM in assay [1] and 4.82 to 103 nM in assay [2].
For the molecule `C[C@@H]1CC/C=C\[C@@H]2C[C@@]2(C(=O)NS(=O)(=O)C2CC2)NC(=O)[C@@H]2C[C@@H](Oc3nc(OCC(F)F)cc4c(Cl)cccc34)CN2C(=O)[C@@H](NC(=O)OC(C)(C)C(F)(F)F)[C@H](C)C1` [Compound 1096, 1,1,1-trifluoro-2-methylpropan-2-yl((2R,6S,7R,9R,13aS,14aR,16aS,Z)-2-((5-chloro-3-(2,2-difluoroethoxyl)isoquinolin-1-yl)oxy)-14a-((cyclopropylsulfonyl)carbamoyl)-7,9-dimethyl-5,16-dioxo-1,2,3,5,6,7,8,9,10,11,13a,14,14a,15,16,16a-hexadecahydrocyclopropa[e]pyrrolo[1,2-a][1,4]diazacyclopentadecin-6-yl)carbamate], the EC50 in assay [1] and in assay [2] was less than 5.46 nM throughout.
As to `C[C@H]1CC/C=C\[C@@H]2C[C@@]2(C(=O)NS(=O)(=O)C2(C)CC2)NC(=O)[C@@H]2C[C@@H](Oc3nc(OCC(F)F)cc4c(Cl)cccc34)CN2C(=O)[C@@H](NC(=O)OC(C)(C)C(F)(F)F)[C@H](C)C1` [Compound 1097, 1,1,1-trifluoro-2-methylpropan-2-yl((2R,6S,7R,9S,13aS,14aR,16aS,Z)-2-((5-chloro-3-(2,2-difluoroethoxyl)isoquinolin-1-yl)oxy)-7,9-dimethyl-14a-(((1-methylcyclopropyl)sulfonyl)carbamoyl)-5,16-dioxo-1,2,3,5,6,7,8,9,10,11,13a,14,14a,15,16,16a-hexadecahydrocyclopropa[e]pyrrolo[1,2-a][1,4]diazacyclopentadecin-6-yl)carbamate], the EC50 is less than 5.46 nM in assay [1] and 4.82 to 103 nM in assay [2].
The corresponding values for `C[C@@H]1CC/C=C\[C@@H]2C[C@@]2(C(=O)NS(=O)(=O)C2(C)CC2)NC(=O)[C@@H]2C[C@@H](Oc3nc(OCC(F)F)cc4c(Cl)cccc34)CN2C(=O)[C@@H](NC(=O)OC(C)(C)C(F)(F)F)[C@H](C)C1` [Compound 1098, 1,1,1-trifluoro-2-methylpropan-2-yl((2R,6S,7R,9R,13aS,14aR,16aS,Z)-2-((5-chloro-3-(2,2-difluoroethoxyl)isoquinolin-1-yl)oxy)-7,9-dimethyl-14a-(((1-methylcyclopropyl)sulfonyl)carbamoyl)-5,16-dioxo-1,2,3,5,6,7,8,9,10,11,13a,14,14a,15,16,16a-hexadecahydrocyclopropa[e]pyrrolo[1,2-a][1,4]diazacyclopentadecin-6-yl)carbamate] are less than 5.46 nM and less than 5.46 nM.
On the same counts, the results for `C[C@H]1CC/C=C\[C@@H]2C[C@@]2(C(=O)NS(=O)(=O)C2CC2)NC(=O)[C@@H]2C[C@@H](Oc3nc(OCC(F)F)cc4c(Cl)cccc34)CN2C(=O)[C@@H](NC(=O)O[C@H](C)C(F)(F)F)[C@H](C)C1` [Compound 1099, (R)-1,1,1-trifluoropropan-2-yl ((2R,6S,7R,9S,13aS,14aR,16aS,Z)-2-((5-chloro-3-(2,2-difluoroethoxyl)isoquinolin-1-yl)oxy)-14a-((cyclopropylsulfonyl)carbamoyl)-7,9-dimethyl-5,16-dioxo-1,2,3,5,6,7,8,9,10,11,13a,14,14a,15,16,16a-hexadecahydrocyclopropa[e]pyrrolo[1,2-a][1,4]diazacyclopentadecin-6-yl)carbamate] are less than 5.46 nM and less than 5.46 nM.
